Source: ChEMBL document CHEMBL1147360, “Conioidines A and B, novel DNA-interacting pyrrolidines from Chamaesaracha conioides” (J Nat Prod, 1993)
Values after ≈ are worked out from the molar mass of the structure shown.

Experiments:
Calf thymus DNA = test: Binding affinity to calf thymus DNA; type: nucleic-acid assay, Bos taurus
KB [1] = test: Cytotoxicity against human KB cells after 48 hrs; type: functional, cell-based
KB [2] = test: Cytotoxicity against human KB cells after 48 hrs in presence of exogenous DNA; type: functional, cell-based

Work on `C/C=C(\C)C(=O)OC(C)CC1CCCN1C(=O)CCCCCCCCC` (stereo not drawn) [CONIOIDINE A] yielded a Kd (Calf thymus DNA) of 2800 nM, an IC50 (KB [1]) of 0.67 µg/mL (≈ 1.83 µM) and an IC50 (KB [2]) of 2.1 µg/mL.
